# Measured values taken from patent publication US6472383B1, “Pharmaceutical formulations” (priority 1994, dated 2002).
# Several values for one entry are separate records, joined by “and”; a condition that tells them apart may be missing. Equal entries are not always repeated. Structures can show the parent of a compound that is named as a salt.
# Legend:
# Ent. cloacae N1 = assay: in-vitro MIC of amoxycillin alone and with Example 1; assay type: cell-based; conditions: alone; β-lactamase 1 (inducible expression)
# S. aureus Russell = assay: as above; assay type: cell-based; conditions: alone; β-lactamase 2a
# JT4 = assay: as above; assay type: cell-based, P. coli; conditions: alone; β-lactamase 2b (high expression)
# E. coli P91 = assay: as above; assay type: cell-based; conditions: alone; β-lactamase 2d
# E. coli JT39 = assay: as above; assay type: cell-based; conditions: alone; β-lactamase 2b (low expression)
# Ent. cloacae P99 = assay: as above; assay type: cell-based; conditions: alone; β-lactamase 1 (high constitutive expression)
# P. vulgaris C = assay: as above; assay type: cell-based; conditions: alone; β-lactamase 2e
# P. mirabilis C889 = assay: as above; assay type: cell-based; conditions: alone; β-lactamase 2c
# E. cloacae = assay: in vitro selection of ceftazidime-resistant cells in a growing population; assay type: cell-based
# [1] = test system: strain of Enterobacter producing extended spectrum β-lactamase enzymes; assay: in-vitro MIC of ceftazidime alone and with Example 1; assay type: cell-based; conditions: Enterobacter ESBL strain
# Source text: (§1) The in-vitro synergistic activity of the compound of Example 1 above (i.e sodium (5R)-6-[(Z)-(2,3-dihydroimidazo[2,1-b]thiazol-6-yl) methylene]penem-3-carboxylate) with ceftazidime was investigated.
# B. fragilis [2] = assay: as above; assay type: cell-based
# Source text: as §1
# [3] = test system: strain of Ent.cloacae producing high levels of Class 1 β-lactamases constitutively; assay: MIC of cefotaxime, titration with Example 1; assay type: cell-based; conditions: in presence of 1 μg/ml Example 1; Ent.cloacae high Class 1
# [4] = test system: Enterobacter cloacae (4593) producing high levels of derepressed class (AmpC) β-lactamase; assay: mouse intraperitoneal infection, cefotaxime CD50; assay type: in vivo, mice
# Protocol: (§2) In these studies, mice were infected intraperitoneally with a lethal challenge inoculum of strains of either Klebsiella pneumoniae (520), producing extended-spectrum TEM type ββ-lactamase, (TEM-3) or Enterobacter cloacae (4593) producing high levels of derepressed class (AmpC) ββ-lactamase. Virulence of all strains was enhanced by suspending the bacteria in hog gastric mucin prior to infection.
# (§3) Mice were dosed subcutaneously at 1 and 5 hours post-infection, with either cefotaxime alone or coadministered with the ββ-lactamase inhibitor at 1 mg/kg or 5 mg/kg.
# (§4) 1 CD50 (dose protecting 50% of animals from lethal infection) calculated from groups of 5 animals per test, subjected to a range of 4 dose levels (4-fold serial dilutions)
# (§5) Efficacy was assessed by the number of animal surviving at 4 days after infection, and the total dose that protected 50% of treated animals (CD50 value) was calculated.
# [5] = test system: Klebsiella pneumoniae (520), producing TEM-3 β-lactamase; assay: mouse intraperitoneal infection, cefotaxime CD50; assay type: in vivo, mice
# Protocol: as §2, §3, §4, §5
# [6] = test system: strains of Enterobacteriaceae producing extended spectrum β-lactamases; assay: in-vitro synergy with cefotaxime; assay type: cell-based; conditions: 1 μg/ml Example 1
# Source text: (§6) The in-vitro synergistic activity of the compound of Example 1 above (i.e sodium (5R)-6-[(Z)-(2,3-dihydroimidazo[2,1-b]thiazol- 6-yl)methylene]penem-3-carboxylate) with cefotaxime was investigated.
# B. fragilis [7] = assay: in-vitro synergy with cefotaxime; assay type: cell-based; conditions: 1 μg/ml Example 1
# Source text: as §6
# [8] = test system: TEM-3 producing strain of K.pneumoniae; assay: MIC of cefotaxime, titration with Example 1; assay type: cell-based; conditions: K.pneumoniae TEM-3
# Protocol: as §6
# The MIC (inimum inhibitory concentration) of cefotaxime against one TEM-3 producing strain of K.pneumoniae was measured.
# serum half life = conditions: in vivo
# [9] = test system: Escherichia coli (E96), producing TEM-1 β-lactamase; assay: mouse intraperitoneal infection, amoxycillin CD50; assay type: in vivo, mice; conditions: coadministration with Example 1 versus amoxycillin alone
# Protocol: In these studies, mice were infected intrapenitoneally with a lethal challenge inoculum of strains of Escherichia coli (E96), producing TEM-1 ββ-lactamase, for tests to protect amoxycillin. Virulence of all strains was enhanced by suspending the bacteria in hog gastric mucin prior to infection.
# Mice were dosed subcutaneously at 1 and 5 hours post-infection, with either amoxycillin alone or coadministered with the ββ-lactamase inhibitor at 2 mg/kg.
# as §5
# [10] = in presence of 1 μg/ml Example 1
smiles,measurement,setting,value
"CC1(C)S[C@@H]2[C@H](NC(=O)[C@H](N)c3ccc(O)cc3)C(=O)N2[C@H]1C(=O)O [Amoxycillin, 6-[D(−)-α-amino-p-hydroxypheny-acetamido]penicillanic acid]",Amoxycillin MIC,Ent. cloacae N1,> 256 µg/mL
same,Amoxycillin MIC,S. aureus Russell,128 µg/mL
same,Amoxycillin MIC,JT4,> 256 µg/mL
same,Amoxycillin MIC,E. coli P91,> 256 µg/mL
same,Amoxycillin MIC,E. coli JT39,> 256 µg/mL
same,Amoxycillin MIC,Ent. cloacae P99,> 256 µg/mL
same,Amoxycillin MIC,P. vulgaris C,32 µg/mL
same,Amoxycillin MIC,P. mirabilis C889,> 256 µg/mL
"CC(C)(O/N=C(\C(=O)N[C@@H]1C(=O)N2C(C(=O)[O-])=C(C[n+]3ccccc3)CS[C@H]12)c1csc(N)n1)C(=O)O [ceftazidime, [6R -[6α,7β(Z)]]-1-[[7-[[(2-amino-4-thiazolyl)[(1-carboxy-1-methylethoxy)imino]acetyl]amino]-2-carboxy-8-oxo-5-thia-1-azabicyclo[4.2.0]oct-2-en-3-yl]methyl]pyridinium hydroxide inner salt]",selection of cells showing high-level resistance to ceftazidime,E. cloacae; ceftazidime alone at 0.5 MIC,rapidly selected
same,MIC,[1]; ceftazidime alone,~7 µg/mL
same,MIC,"B. fragilis [2]; Bacteroides fragilis, ceftazidime alone",~7 µg/mL
"O=C([O-])C1=CS[C@@H]2/C(=C\c3cn4c(n3)SCC4)C(=O)N12.[Na+] [Example 1, Sodium (5R)-6-[(Z)-(2,3-Dihydroimidazo[2,1-b]thiazol-6-yl) Methylene]-penem-3-carboxylate]",cefotaxime MIC,[3],below 1 μg/ml
same,protection of infected animals,"[4]; cefotaxime plus Example 1 compared with cefotaxime alone, E. cloacae (4593)",consistent protection
same,protection of infected animals,"[5]; cefotaxime plus Example 1 compared with cefotaxime alone, K.pneumoniae (520)",consistent protection
same,rate of emergence of resistant isolates,E. cloacae; ceftazidime at 0.5 MIC plus Example 1,reduced the rate of emergence of resistant isolates dramatically
same,final level of resistance,E. cloacae; combination of ceftazidime and Example 1 versus ceftazidime alone,much lower than that observed with ceftazidime alone
same,synergy with cefotaxime,[6],Effective synergy
same,synergy with cefotaxime,B. fragilis [7],Effective synergy
same,MIC of cefotaxime,[8]; Example 1 at concentrations as low as 0.25 μg/ml,below 1 μg/ml
same,serum half life,serum half life,advantageously long
same,effectiveness of amoxycillin in protecting animals,[9],markedly more effective
same,MIC of ceftazidime,[1]; [10],around 2 μg/ml
same,MIC of ceftazidime,B. fragilis [2]; [10],around 4 μg/ml
CO/N=C(\C(=O)N[C@@H]1C(=O)N2C(C(=O)O)=C(COC(C)=O)CS[C@H]12)c1csc(N)n1 [Cefotaxime],Cefotaxime CD50,"[4]; cefotaxime alone, s.c. at 1 and 5 h post-infection, E. cloacae 4593",240 mg/kg and 400 mg/kg
same,Cefotaxime CD50,"[5]; cefotaxime alone, s.c. at 1 and 5 h post-infection, K. pneumoniae",54 mg/kg and 42 mg/kg
same,MIC,"[8]; Klebsiella pneumoniae, in the absence of Example 1",64 µg/mL
